The values below come from patent publication US6362217B1, “Taxane anticancer agents” (Bristol-Myers Squibb Company, priority 2000, dated 2002).

The term IC50 denotes the concentration at which inhibition is half-maximal.

Marks after values point to notes of the source that are not given here.

Data set [1] has as its system HCT-116 human colon carcinoma cells. Briefly: Cytotoxicity, XTT assay. Format: cell-based. The note with it: XTT procedure, 72 hours incubation. Here is the method: (§1) Cytoxicity was assessed in HCT-116 human colon carcinoma cells by either using an XTT or MTS procedure.
Cytotoxicity was assessed in HCT-116 human colon carcinoma cells by XTT (2,3-bis(2-methoxy-4-nitro-5-sulfpphenyl)-5-[(phenylamino)carbonyl]2H-tetrazolium hydroxide) assay as reported in D. A. Scudiero, et al., “Evaluation of soluble tetrazolium/formazan assay for cell growth and drug sensitivity in culture using human and other tumor cell lines,” Cancer Res. 48:4827-4833, 1988. Cells were plated at 4000 cells/well in 96 well microtiter plates and 24 hours later drugs were added and serial diluted. The cells were incubated at 37° C. for 72 hours at which time the tetrazolium dye, XTT, was added. A dehydrogenase enzyme in live cells reduces the XTT to a form that absorbs light at 450 nm which can be quantitated spectrophotometrically. The greater the absorbance, the greater the number of live cells. The results are expressed as an IC50, which is the drug concentration required to inhibit cell proliferation (i.e., absorbance at 450 nm) to 50% of that of untreated control cells.
A general note: Tetrazolium assays rely on reduction of a dye to a coloured formazan, in cell work by metabolically active cells.

For data set [2] the test system is unchanged. Briefly: Cytotoxicity, MTS assay. Format: cell-based. The note with it: MTS procedure, 72 hours incubation. Here is the method:
as §1
Cytoxicity was assessed in HCT-116 human colon carcinoma cells by MTS (3-(4,5-dimethylthiazol-2-yl)-5-(3-carboxymethoxyphenyl)-2-(4-sulphenyl)-2H-tetrazolium, inner salt) assay as reported in T. L. Riss, et. al., “Comparison of MTT, XTT, and a novel tetrazolium compound MTS for in vitro proliferation and chemosensitivity assays.” Mol. Biol. Cell 3 (Suppl.):184a, 1992. Cells were plated at 4,000 cell/well in 96 well microtiter plates and 24 hours later drugs were added and serial diluted. The cells were incubated at 37° form 72 hours at which time the tetrazolium dye, MTS at 333 μg/ml (final concentration), in combination with the electron coupling agent phenazine methosulfate at 25 μM (final concentration) was added. A dehydrogenase enzyme in live cells reduces the MTS to a form that absorbs light at […] which can be quantitated spectrophotometrically. The greater the absorbance the greater the number of live cells. The results are expressed as an IC50, which is the drug concentration required to inhibit cell proliferation (i.e. absorbance at 450 nm) to 50% of that of untreated control cells. The IC50 values for compounds evaluated in this assay are evaluated in Table I.

For data set [3], the system named is human ovarian carcinoma A2780. Nature of the data set: In vivo antitumor testing, A2780 xenograft model. Set-up: species or system nude mice. The text has this: (§2) Animals. Conventional or athymic (“nude”) mice, and nude rats, were implanted subcutaneously (sc) with tumor brei or fragments. Murine tumor were implanted in conventional mice, human tumors were implanted into nude mice or rats.
(§3) Tumors. A variety of tumors have been utilized but not all of them have necessarily been used to evaluate each and every taxane. The tumors utilized most often included the murine lung carcinoma, M109, the murine mammary carcinoma, MAM 16/C, the human ovarian carcinoma. A2780, the human colon tumors, HCT-116 and HCT-116/pk.
(§4) Treatments are initiated at differing times post-implantation depending upon the desired stringency of the test system; in general, the greater the delay post-tumor implantation, the larger the tumors at the start of therapy. Typically, treatments were begun in the M109 tumor model on Day 4 post-tumor implant, Day 7 in the MAM 16/C tumor model, and when tumors were between 100 and 500 mg in size (typically Day 7 to Day 12 post-tumor implant) for each of the human tumor xenograft models (e.g., A2780, HCT-116 and HCT-116/pk). Group sizes were typically 8 per treatment and control groups in mouse experiments and 7 per treatment and control groups in rat experiments.
Treatments for taxanes administered orally (po) were done by gavage using a vehicle consisting of 10% ethanol +10% Cremophor EL+80% water. […]
(§5) Paclitaxel was administered iv on treatment schedules and doses established from experience as being optimal, or near optimal, for the particular tumor, tumor staging, and host animal under study. It was given once daily, for five consecutive daily treatments (i.e., qd×5), when evaluated in the M109 and MAM 16/C tumor models, once daily every other day for five treatments (i.e., q2d×5) when administered to mice bearing human tumors, and once daily every other or every fourth day for five or three treatments, respectively (i.e., q2d×5 or q4d×3), to rats.
(§6) Orally administered taxanes were evaluated on the same treatment schedules just described for iv administered paclitaxel, plus other treatment schedules such as daily for nine days, or every eight days for two treatments.
Antitumor activity was assessed by determining the size of tumors in all treated and control experimental animals over time. Each animal was individually identified and the growth of the tumor implanted into each animal was measured once or twice weekly using a calipers. The difference in median time for tumors in treated (T) and control (C) groups to reach a predetermined size (e.g., 500 or 1,000 milligrams) was calculated, and assessments of absolute and relative antitumor effects (e.g., between compounds) were made on the basis of the delays in time to reach predetermined tumor target sizes. […]

In data set [4] the test system is murine lung carcinoma, M109. Briefly: In vivo antitumor testing, sc M109 tumor model. Set-up: species or system mice. The note with it: for iv activity compared to concomitantly evaluated iv paclitaxel: scM109 tumors.
Excerpt: as §2, §3, §4
Treatments for taxanes administered orally (po) were done by gavage using a vehicle consisting of 10% ethanol +10% Cremophor EL+80% water. The volume of liquid administered was 0.01 ml per gram of body weight for mice, and 0.005 ml per gram of body weight for rats. A typical mouse experiment would involve the evaluation of each test compound at three different dose levels, but only one to three test groups per compound were included in rat experiments. In every experiment, intravenously (iv) administered paclitaxel was included as a reference drug.
as §5, §6
Antitumor activity was assessed by determining the size of tumors in all treated and control experimental animals over time. Each animal was individually identified and the growth of the tumor implanted into each animal was measured once or twice weekly using a calipers. The difference in median time for tumors in treated (T) and control (C) groups to reach a predetermined size (e.g., 500 or 1,000 milligrams) was calculated, and assessments of absolute and relative antitumor effects (e.g., between compounds) were made on the basis of the delays in time to reach predetermined tumor target sizes. Animals with tumors of 35 mg or less at the termination of an experiment were termed “cures”. Experiments were terminated typically after a period of time had elapsed post-treatment that was at least 10 times the tumor volume doubling time (TVDT) of the median tumor growth in control animals as assessed prior to their reaching the predetermined tumor target size in each experiment. Activity in a test group was defined as having caused a delay in tumor growth (median time to reach tumor target size) relative to the concomitant control tumor growth (i.e. T-C) of 3.32 times the TVDT. Activity was expressed in log cell kill which was equal to (T-C)/(TVDT×3.32). Toxicity was determined by measuring the average body weight of all animals in an experiment prior to, and soon after, any treatments in the experiment. […]

For data set [5] the following is noted: human or animal models, prior art; cited from earlier work.

For `CC(=O)OC12COC1CCC1(C)C(=O)C(OC(=O)c3ccccc3[N+](=O)[O-])C3=C(C)C(OC(=O)C(O)C(NC(=O)c4ccccc4)c4ccccc4)CC(O)(C(OC(=O)c4ccccc4)C12)C3(C)C` (stereo not drawn) [If, 10-(2-Nitro)benzoyl-7-deoxy paclitaxel], half-maximal inhibition in data set [1] (IC50) required 13.3 nM.
As to 3′N-(2-furoyl)-7-deoxy paclitaxel [Ib], in data set [2], the IC50 was 0.85 nM. The “oral activity compared to optimal iv paclitaxel” value in data set [3] (oral, A2780 model) is recorded as “equallyactive if not better”. In addition, the “PO Activity in LCK” value in data set [3] (po, 85 mg/kg per administration, A2780) is listed as >7 LCK; in data set [4] (po, 40 mg/kg per administration, M109), 0.7 LCK. Also, the “Cures (mice cured / tested)” value in data set [3] (po, 85 mg/kg per administration, A2780, cure = tumor of 35 mg or less at termination) is reported as “(1/8)**”. Besides, the “IV Activity in LCK” value in data set [4] (iv, 20 mg/kg per injection, M109) was 0.7 LCK. Moreover, the “iv activity compared to concomitantly evaluated iv paclitaxel” value in data set [4] (iv) is on record as “equiactive to paclitaxel”. The “oral activity” value in data set [4] (oral, M109 model) is “active orally”.
For the compound “7-deoxy-3′-(4-hydroxyphenyl)-3′N-t-butoxycarbonyl paclitaxel [Compound Ia]”, the IC50 in data set [2] amounted to 4.3 nM. In addition, the “IV Activity in LCK” value in data set [4] (iv, 13 mg/kg per injection, M109, log cell kill = (T-C)/(TVDT×3.32)) is reported as 1.4 LCK. Also, the “iv activity compared to concomitantly evaluated iv paclitaxel” value in data set [4] (iv) is recorded as “surprising activity”.
The compound `CC(=O)OC12COC1CCC1(C)C(=O)C(OC(=O)N3CCOCC3)C3=C(C)C(OC(=O)C(O)C(NC(=O)c4ccccc4)c4ccccc4)CC(O)(C(OC(=O)c4ccccc4)C12)C3(C)C` (stereo not drawn) [Ic, 10-Morpholinoyl-7-deoxy paclitaxel] came in with an IC50 in data set [1] of 1.49 nM.
For `CC(=O)O[C@@]12CO[C@@H]1C[C@H](O)[C@@]1(C)C(=O)[C@H](O)C3=C(C)[C@@H](OC(=O)[C@H](O)[C@@H](NC(=O)OC(C)(C)C)c4ccccc4)C[C@@](O)([C@@H](OC(=O)c4ccccc4)[C@H]21)C3(C)C` [TAXOTERE®, docetaxel], the “oral activity” value in data set [5] is “no oral activity”.
Turning to “10-(2-amino)benzoyl-7-deoxy paclitaxel [Ih]”, in data set [1], the IC50 is 102 nM.
The same measure, in the same setting: the result for `CC(=O)OC12COC1CCC1(C)C(=O)C(OC(=O)COc3ccccc3)C3=C(C)C(OC(=O)C(O)C(NC(=O)c4ccccc4)c4ccccc4)CC(O)(C(OC(=O)c4ccccc4)C12)C3(C)C` (stereo not drawn) [Ie, 10-Phenoxyacetyl-7-deoxy paclitaxel] reads 8.09 nM; that for `CC(=O)OC12COC1CCC1(C)C(=O)C(OC(=O)C=Cc3ccccc3)C3=C(C)C(OC(=O)C(O)C(NC(=O)c4ccccc4)c4ccccc4)CC(O)(C(OC(=O)c4ccccc4)C12)C3(C)C` (stereo not drawn) [Ig, 10-Cinnamoyl-7-deoxy paclitaxel], 28.4 nM; that for `CCCCCCCC(=O)OC1C(=O)C2(C)CCC3OCC3(OC(C)=O)C2C(OC(=O)c2ccccc2)C2(O)CC(OC(=O)C(O)C(NC(=O)c3ccccc3)c3ccccc3)C(C)=C1C2(C)C` (stereo not drawn) [Id, 10-Octanoyl-7-deoxy paclitaxel], 98.2 nM.
Turning to `CC(=O)O[C@H]1C(=O)[C@@]2(C)[C@H]([C@H](OC(=O)c3ccccc3)[C@]3(O)C[C@H](OC(=O)[C@H](O)[C@@H](NC(=O)c4ccccc4)c4ccccc4)C(C)=C1C3(C)C)[C@]1(OC(C)=O)CO[C@@H]1C[C@@H]2O` [Paclitaxel, paclitaxel, reference compound], in data set [5], the “oral activity” value was “no oral activity”. For the same compound, the “Optimal Activity of iv Paclitaxel” value in data set [3] (iv, optimal dose and schedule (q2d×5), A2780, concomitantly evaluated) is on record as 5.9 LCK; in data set [4] (iv, optimal dose and schedule (qd×5), M109, concomitantly evaluated), 0.7 LCK.
